The text below walks through data of patent US20230398130A1, “METHODS AND COMPOSITIONS FOR DIFFERENTIATING STEM CELLS” (Massachusetts Institute of Technology, priority 2020, published 2023).

“Also recorded” adds a separate entry of the source.

What all share (format): cell-based, murine
For one test, the system named is lysozyme (LYZ). In words: Western blotting of lysozyme in 3D-cultured intestinal organoids. The note with it: organoids cultured 6 days in ENR+CV, ENR+CD or ENR. The text has this: Western blotting. ISC-enriched organoids cultured in 3D Matrigel with ENRCV media were passaged to 24-well plate in 3D Matrigel with ENRCV. At day zero, media were replaced to ENR or ENRCD with or without indicated compounds, and media were replaced every other day. At day six, cells were harvested from Matrigel by mechanical disruption and suspended in basal media. Cell pellets were lysed with Pierce© IP lysis buffer (ThermoFisher, 87787) containing Halt™ Protease Inhibitor Cocktail, EDTA-Free (ThermoFisher, 87785) after 3-minute centrifuge at 300×g at 4° C. Cell extracts were resolved by NuPAGE© SDS-PAGE Gel system (ThermoFisher) and electroblotted onto polyvinylidene difluoride membranes using Criterion™ Blotter (Biorad). The membranes were blocked with 2% Blotting-Grade Blocker (Biorad, 1706404) in TBS-T (50 mM Tris-HCl, 150 mM NaCl, and 0.1% Tween 20, pH 8.0) and then probed with appropriate antibodies. Detection was performed using ECL Select™ Western Blotting Detection Reagent (Amersham, 45-000-999) and ImageQuant LAS4000 (GE Healthcare).
Western blotting. Organoid-containing gel was homogenized in basal medium and centrifuged at 300 rcf for 3 min. Organoid pellet was lysed with ice-cold Pierce IP Lysis Buffer (Thermo Fisher Scientific, #87787) containing Halt Protease Inhibitor Cocktail, EDTA-Free (Thermo Fisher Scientific, #87785) and incubated on ice for 20 min. The lysate was centrifuged at 17,000 rcf for 10 min, and the supernatant was combined with NuPAGE LDS Sample Buffer (Thermo Fisher Scientific, NP0007). Protein concentration was determined by Pierce 660 nm Protein Assay (Thermo Fisher Scientific, #22660) and normalized to the lowest concentration among each sample set. […] Chemiluminescent signals were detected by LAS4000 (GE Healthcare) using Amersham ECL Select Western Blotting Detection Reagent (GE Healthcare, #45-000-999), and total protein signals were obtained by Odyssey Imaging System (LI-COR Biosciences) using REVERT Total Protein Stain Kit (LI-COR Biosciences, #926-11010).

Test [1] has as its system ISC-enriched organoids. In words: Lysozyme secretion assay, 3-D organoids in ENR+CD, normalized to ATP. Here is the method: Lysozyme assay (3D culture). ISC-enriched organoids cultured in 3D Matrigel with ENRCV media were passaged to 48-well plate in 3D Matrigel with ENRCV. At day zero, media were replaced to ENR or ENRCD with or without indicated compounds, and media were replaced every other day. At day six, cells were washed twice with basal media and treated with carbamylcholine chloride (Sigma, C4382) for 3 hours. Media were collected and lysozyme activity was measured by EnzChek Lysozyme Assay Kit (ThermoFisher, E22013).
(§1) Lysozyme secretion assay. ISC-enriched organoids in 3D Matrigel culture were passaged to a 48- or 96-well plate and cultured with ENR or ENR+CD media containing DMSO or each drug for 6 days. DMSO- or drug-containing media were changed every other day. On day 6, cells were washed with basal media twice and treated with basal media with or without 10 μM carbamoylcholine chloride for 3 h in a CO2 incubator at 37° C. A part of the conditioned media was collected and used for lysozyme assay (Thermo, E-22013) following the manufacturer's instruction. The fluorescence was measured using excitation/emission of 485/530 nm. CellTiter-Glo 3D Reagent (Promega, G9681) was added afterward, and the cell culture plate was incubated on an orbital shaker at RT for 30 min to induce cell lysis and to stabilize the luminescent signal. The solution was replaced to a 96-well white microplate, and luminescent signals were measured by a microplate reader (infinite M200, Tecan). The standard curve was prepared by diluting recombinant ATP (Promega, P1132). For both assays, a polynomial cubic curve was fitted to a set of standard data, and each sample value was calculated on the Microsoft Excel.
as §1, with “in 3-D” for “in 3D”, “μM carbachol” for “μM carbamoylcholine chloride”, “3 hours” for “3 h”, “C. Conditioned” for “C. A part of the conditioned”, “nm. CTG” for “nm. CellTiter-Glo”, “Reagent” for “Reagent (Promega, G9681)”

In test [2] the test system is ISC-enriched organoids. The test is described as follows: Secondary (validation) screen, 384-well 2.5-D, ENR+CD 6 days, n=8 wells, vs ENR+CD+DMSO control: carbachol-induced lysozyme secretion (LYZ.S).

Take `O=C(/C=C\n1cnc(-c2cc(C(F)(F)F)cc(C(F)(F)F)c2)n1)NNc1cnccn1` [KPT-330]: the “LYZ abundance per unit protein (Western blotting)” value in the test on lysozyme (LYZ) is “appreciably increase LYZ abundance”. For the same compound, the “LYZ secretion, dose dependency” value in the test on ISC-enriched organoids [1] (KPT-330 below 160 nM for 6 days, basal and Cch-stimulated) was “enhanced Paneth cell activity in a dose-dependent manner; also recorded: LYZ secretion increasing in a dose-dependent manner”. Moreover, in the test on ISC-enriched organoids [1] (KPT-330 treatment day 4-6), the “enrichment in mature Paneth cells at day 6 (LYZ secretion assay)” value is “minorly enriched; also recorded: slightly enriched”. Moreover, in the test with ISC-enriched organoids [1] (LYZ secretion, ENR+CD 6 days), the “most effective dose among tested concentrations” value stood at 160 nM. For the same compound, the Z.LYZ.S with ISC-enriched organoids [2] (Dose 0.02 uM) was −0.028; with ISC-enriched organoids [2] (Dose 0.04 uM), −0.587; with ISC-enriched organoids [2] (dose 0.08 uM) it was 1.031. Further, the repSSMD.LYZ.S with ISC-enriched organoids [2] (Dose 0.02 uM) is −0.044; in the test with ISC-enriched organoids [2] (Dose 0.04 uM), −0.955; with ISC-enriched organoids [2] (dose 0.08 uM), 1.678. Besides, in the test on ISC-enriched organoids [2] (validated doses, secondary screen), the “increase in LYZ.S (stimulated LYZ secretion) relative to ENR+CD control” value is reported as 50-75%.
